Source: ChEMBL document CHEMBL1201862, “PubChem BioAssay data set” (2004)
The source made the active and inactive calls.

Key:
[1] = target: T1, Replicative DNA helicase DnaB (Mycobacterium tuberculosis, UniProt P9WMR3); assay: DnaB intein splicing inhibitors, dose response, biochemical, cell-free fluorescence (AID 449749); format: functional
T1 sequence (P9WMR3 whole entry): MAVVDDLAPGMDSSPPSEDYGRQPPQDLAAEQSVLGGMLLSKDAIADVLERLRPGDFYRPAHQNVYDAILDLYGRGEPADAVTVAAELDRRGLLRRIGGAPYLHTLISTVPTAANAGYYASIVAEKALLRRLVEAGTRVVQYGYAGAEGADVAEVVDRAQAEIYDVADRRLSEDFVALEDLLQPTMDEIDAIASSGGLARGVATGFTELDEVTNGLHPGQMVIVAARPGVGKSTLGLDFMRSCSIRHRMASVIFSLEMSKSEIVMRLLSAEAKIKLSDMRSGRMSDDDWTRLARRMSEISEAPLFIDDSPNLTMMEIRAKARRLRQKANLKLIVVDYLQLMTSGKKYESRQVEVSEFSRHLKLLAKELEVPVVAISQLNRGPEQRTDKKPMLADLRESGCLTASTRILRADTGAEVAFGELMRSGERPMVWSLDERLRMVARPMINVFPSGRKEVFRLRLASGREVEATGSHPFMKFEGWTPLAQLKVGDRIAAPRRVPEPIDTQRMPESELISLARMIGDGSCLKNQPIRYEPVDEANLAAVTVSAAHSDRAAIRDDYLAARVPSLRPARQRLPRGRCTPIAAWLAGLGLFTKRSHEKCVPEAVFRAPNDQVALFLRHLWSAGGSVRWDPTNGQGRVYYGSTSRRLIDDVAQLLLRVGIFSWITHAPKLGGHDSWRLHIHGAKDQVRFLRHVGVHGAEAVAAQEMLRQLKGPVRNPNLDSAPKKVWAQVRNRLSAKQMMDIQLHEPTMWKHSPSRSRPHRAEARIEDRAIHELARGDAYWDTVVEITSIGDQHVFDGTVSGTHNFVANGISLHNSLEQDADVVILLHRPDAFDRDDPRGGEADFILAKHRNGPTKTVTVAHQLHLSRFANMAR

Protein RecA = target: T2, Protein RecA (Mycobacterium tuberculosis, UniProt P9WHJ3); assay: Fluorescence Cell-Free Homogeneous Dose Retest to Identify Inhibitors of RecA-Intein Splicing Activity. [Related pubchem assays (depositor defined):AID2097, AID2223, AID489010, AID492950]; format: functional
T2 sequence (P9WHJ3 whole entry): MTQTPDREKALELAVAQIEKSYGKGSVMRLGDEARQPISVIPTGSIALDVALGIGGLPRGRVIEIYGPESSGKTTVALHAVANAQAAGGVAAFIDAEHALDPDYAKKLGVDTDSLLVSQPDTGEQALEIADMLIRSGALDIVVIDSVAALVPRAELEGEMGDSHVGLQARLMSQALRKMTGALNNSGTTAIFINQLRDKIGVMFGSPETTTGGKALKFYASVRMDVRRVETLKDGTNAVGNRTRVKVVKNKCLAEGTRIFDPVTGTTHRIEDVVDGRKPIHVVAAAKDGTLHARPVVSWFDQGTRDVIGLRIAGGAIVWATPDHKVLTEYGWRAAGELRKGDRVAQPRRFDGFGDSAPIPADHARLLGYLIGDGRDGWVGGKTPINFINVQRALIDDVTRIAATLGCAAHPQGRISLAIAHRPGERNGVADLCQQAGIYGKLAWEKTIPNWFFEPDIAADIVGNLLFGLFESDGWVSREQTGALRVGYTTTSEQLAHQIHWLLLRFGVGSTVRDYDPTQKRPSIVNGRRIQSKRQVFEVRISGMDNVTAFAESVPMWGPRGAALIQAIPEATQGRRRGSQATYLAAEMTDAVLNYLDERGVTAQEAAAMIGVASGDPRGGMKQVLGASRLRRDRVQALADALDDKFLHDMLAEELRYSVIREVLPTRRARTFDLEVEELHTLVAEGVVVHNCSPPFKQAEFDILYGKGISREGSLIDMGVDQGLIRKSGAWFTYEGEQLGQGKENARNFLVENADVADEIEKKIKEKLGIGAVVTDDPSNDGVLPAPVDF

[2] = target: Heat shock protein HSP 90-alpha (Homo sapiens, UniProt P07900); assay: Luminescence-based dose response biochemical high throughput screening assay for inhibitors of the Heat Shock Protein 90 (HSP90). [Related pubchem assays: 1831 (Summary AID.), 1846 (Confirmation screen.), 1789 (Primary screen.)]
[3] = target: T3, Heat shock factor protein 1 (Mus musculus, UniProt P38532); assay: HSF1 potentiators in luciferase reporter cells, confirmation, cell-based, NIH3T3, luminescence, dose retest (AID 435004); format: functional;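 note: stress induced by proteasome inhibitor MG132 added 30 min after compound; luciferase reporter driven by HSF1 response element in NIH3T3 cells; actives raise luminescence as potentiators of the MG132 stress response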
T3 sequence (P38532 whole entry): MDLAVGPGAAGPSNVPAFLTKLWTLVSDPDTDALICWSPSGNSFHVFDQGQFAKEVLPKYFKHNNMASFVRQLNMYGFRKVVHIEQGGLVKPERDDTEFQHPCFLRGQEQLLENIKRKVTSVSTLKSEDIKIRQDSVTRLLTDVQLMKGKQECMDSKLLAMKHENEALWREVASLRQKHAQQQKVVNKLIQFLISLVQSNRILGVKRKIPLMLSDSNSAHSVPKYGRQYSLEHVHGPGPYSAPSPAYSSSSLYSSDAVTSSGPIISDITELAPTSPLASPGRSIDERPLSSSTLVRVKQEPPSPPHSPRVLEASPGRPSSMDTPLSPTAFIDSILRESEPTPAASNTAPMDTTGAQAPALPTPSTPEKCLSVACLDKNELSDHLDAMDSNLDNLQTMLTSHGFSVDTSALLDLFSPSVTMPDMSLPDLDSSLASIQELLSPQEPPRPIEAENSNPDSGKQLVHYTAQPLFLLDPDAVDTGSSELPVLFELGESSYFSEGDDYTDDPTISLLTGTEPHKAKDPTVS

Vero = Vero cell cytotoxicity, cytotoxicity control for flavivirus capping enzyme inhibitors (AID 588742); format: functional; details: Chlorocebus sabaeus
INS1 = assay: beta cell apoptosis inhibitors, cytokine rescue, dose response, luminescence, retest (AID 449756); format: functional, cell-based; details: Rattus norvegicus;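 note: cell death triggered by IL-1 beta plus TNF-alpha plus IFN-gamma mixture; protective hits raise ATP signal compared with cytokine alone wells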
[4] = target: ATP-dependent molecular chaperone HSP82 (Candida albicans (strain WO-1) (Yeast), UniProt C4YTQ8); assay: loss of DOC-induced GRE-beta-galactosidase reporter signal, dose response, Hsp90 inhibitor project, S. cerevisiae, luminescence (AID 2400); format: functional, cell-based;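 note: beta-galactosidase luminescence from glucocorticoid response element reporter as proxy for Hsp90 function; inhibitor potency where signal loss means Hsp90 inhibition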
ATP-dependent molecular chaperone HSP82, sequence (C4YTQ8 whole entry): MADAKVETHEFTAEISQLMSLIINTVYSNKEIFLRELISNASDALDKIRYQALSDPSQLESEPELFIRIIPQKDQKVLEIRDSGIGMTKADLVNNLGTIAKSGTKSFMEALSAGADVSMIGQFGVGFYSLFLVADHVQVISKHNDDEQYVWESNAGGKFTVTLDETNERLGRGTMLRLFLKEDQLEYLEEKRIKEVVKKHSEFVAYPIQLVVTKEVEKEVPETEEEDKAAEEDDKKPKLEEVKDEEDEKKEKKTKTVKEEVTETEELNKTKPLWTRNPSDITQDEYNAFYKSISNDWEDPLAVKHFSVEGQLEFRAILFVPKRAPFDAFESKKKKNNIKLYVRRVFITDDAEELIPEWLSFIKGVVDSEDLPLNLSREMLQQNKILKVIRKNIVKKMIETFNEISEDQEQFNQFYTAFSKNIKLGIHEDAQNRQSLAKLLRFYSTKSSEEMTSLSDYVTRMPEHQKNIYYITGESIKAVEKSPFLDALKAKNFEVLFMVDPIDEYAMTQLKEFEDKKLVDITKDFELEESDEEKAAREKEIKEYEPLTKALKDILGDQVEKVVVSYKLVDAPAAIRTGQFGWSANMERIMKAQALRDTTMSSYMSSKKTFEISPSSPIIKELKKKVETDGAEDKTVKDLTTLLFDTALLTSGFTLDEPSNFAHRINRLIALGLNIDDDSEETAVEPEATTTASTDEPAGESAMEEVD

O=C(O)c1ccc(S(=O)(=O)/N=C2\C=C(Nc3ccccc3F)C(=O)c3ccccc32)cc1
inconclusive: EC50 [3] > 260 µM
active: AC50 [1] 146 nM | EC50 (Protein RecA) 66.3 nM | IC50 [2] 638 nM | CC50 (Vero) 26.4 µM | AC50 (INS1) 2.61 µM

Cc1ccc(NC2=CC(=O)C(=O)c3ccccc32)cc1
active: AC50 [1] 971 nM | EC50 (Protein RecA) 999 nM | EC50 [4] 40.7 µM | EC50 [3] 7.04 µM | CC50 (Vero) 11.4 µM | AC50 (INS1) 2.63 µM
